“And” between values parts separate entries of the source, which are not always exact repeats. Identical values can stand only once. Toxic doses and inconclusive results are not listed.
Tested on: BDF1 mice, P388 leukemia ip, median survival T/C
Assay: NCI In Vivo Anticancer Drug Screen. Data for tumor model P388 Leukemia (intraperitoneal) in B6D2F1 (BDF1) mice
Settings: endpoint: median survival time, higher = longer survival
Procedure, shortened: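 Mice carrying the transplantable tumour receive compound or vehicle. Survival is followed in each arm, and the treated measure is divided by the vehicle measure.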

[1] = dose: 12.5 mg/kg/injection, schedule: Q01DX009 (ip), vehicle: Klucel (hydroxypropylcellulose) (HPC)
[2] = dose: 25.0 mg/kg/injection, schedule: Q01DX009 (ip), vehicle: Klucel (hydroxypropylcellulose) (HPC)
[3] = dose: 12.5 mg/kg/injection, schedule: Q04DX003 (ip), vehicle: saline
[4] = dose: 100.0 mg/kg/injection, schedule: Q04DX003 (ip), vehicle: saline with Tween-80
[5] = dose: 200.0 mg/kg/injection, schedule: Q04DX003 (ip), vehicle: saline with Tween-80
[6] = dose: 400.0 mg/kg/injection, schedule: Q04DX003 (ip), vehicle: saline with Tween-80
[7] = dose: 50.0 mg/kg/injection, schedule: Q01DX009 (ip), vehicle: saline with Tween-80
[8] = dose: 50.0 mg/kg/injection, schedule: Q04DX003 (ip), vehicle: saline with Tween-80
[9] = dose: 100.0 mg/kg/injection, schedule: Q01DX009 (ip), vehicle: saline with Tween-80
[10] = dose: 200.0 mg/kg/injection, schedule: Q01DX009 (ip), vehicle: saline with Tween-80
[11] = dose: 100.0 mg/kg/injection, schedule: Q04DX003 (ip), vehicle: saline
[12] = dose: 100.0 mg/kg/injection, schedule: Q01DX009 (ip), vehicle: saline
[13] = dose: 200.0 mg/kg/injection, schedule: Q01DX009 (ip), vehicle: saline
[14] = dose: 100.0 mg/kg/injection, schedule: Q04DX003 (ip), vehicle: saline sonified
[15] = dose: 200.0 mg/kg/injection, schedule: Q04DX003 (ip), vehicle: saline sonified

For `ClCCCN1CCN(CCCCl)CC1`, the T/C (dose: 6.25 mg/kg/injection, schedule: Q01DX009 (ip), vehicle: distilled water + alcohol) was 101 % of control, the T/C (dose: 12.5 mg/kg/injection, schedule: Q01DX009 (ip), vehicle: distilled water + alcohol) was 99 % of control and the T/C (dose: 25.0 mg/kg/injection, schedule: Q01DX009 (ip), vehicle: distilled water + alcohol) was 115 % of control. For the same compound, the T/C (dose: 100.0 mg/kg/injection, schedule: Q01DX009 (ip), vehicle: distilled water + alcohol) was 171 % of control.

For `O=C1C(Cl)=C(N2CCOCC2)C(=O)c2ccccc21`, the T/C (dose: 6.25 mg/kg/injection, schedule: Q01DX009 (ip), vehicle: Klucel (hydroxypropylcellulose) (HPC)) was 118 % of control, the T/C [1] was 108 % of control and the T/C [2] was 114 % of control.

For `FC(F)(F)c1ccc2c(c1)N(CCCN1CCN(CCOCCCl)CC1)c1ccccc1S2`, the T/C [3] was 107 % of control.

For `CCOC(=O)COc1ccc(C=O)cc1`, the T/C (dose: 100.0 mg/kg/injection, schedule: Q04DX003 (ip), vehicle: Klucel (hydroxypropylcellulose) (HPC)) was 103 % of control and the T/C (dose: 400.0 mg/kg/injection, schedule: Q04DX003 (ip), vehicle: Klucel (hydroxypropylcellulose) (HPC)) was 92 % of control.

With `O=C(O)/C(Cc1cnc2ccccc2n1)=N\O` the T/C [4] was 95 % of control, the T/C [5] was 100 % of control and the T/C [6] was 91 % of control.

For `N#Cc1ncc(C(Cl)(Cl)Cl)nc1Cl`, the T/C [7] was 110 % of control, the T/C [8] was 105 % of control and the T/C [9] was 120 % of control. For the same compound, the T/C [4] was 115 % of control and 118 % of control and the T/C [5] was 120 % of control.

For `Cc1[nH]c(=S)[nH]c(=O)c1CN(CCO)CCO`, the T/C (dose: 50.0 mg/kg/injection, schedule: Q01DX001 (ip), vehicle: Klucel (hydroxypropylcellulose) (HPC)) was 96 % of control, the T/C (dose: 100.0 mg/kg/injection, schedule: Q01DX001 (ip), vehicle: Klucel (hydroxypropylcellulose) (HPC)) was 96 % of control and the T/C (dose: 200.0 mg/kg/injection, schedule: Q01DX001 (ip), vehicle: Klucel (hydroxypropylcellulose) (HPC)) was 96 % of control.

`CC1OC(OC2CCCc3ccccc32)CC(N)C1O` (centres undefined) was tested, and the T/C (dose: 0.25 mg/kg/injection, schedule: Q01DX009 (ip), vehicle: water) was 91 % of control and 94 % of control, the T/C (dose: 0.5 mg/kg/injection, schedule: Q01DX009 (ip), vehicle: water) was 101 % of control and 115 % of control and 103 % of control and the T/C (dose: 1.0 mg/kg/injection, schedule: Q01DX009 (ip), vehicle: water) was 110 % of control [middle of 4 runs]. For the same compound, the T/C (dose: 2.0 mg/kg/injection, schedule: Q01DX009 (ip), vehicle: water) was 101 % of control and 102 % of control and 105 % of control, the T/C (dose: 4.0 mg/kg/injection, schedule: Q01DX009 (ip), vehicle: water) was 109 % of control [middle of 5 runs] and the T/C (dose: 8.0 mg/kg/injection, schedule: Q01DX009 (ip), vehicle: water) was 106 % of control and 111 % of control. For the same compound, the T/C (dose: 16.0 mg/kg/injection, schedule: Q01DX009 (ip), vehicle: water) was 98 % of control and 108 % of control and the T/C (dose: 32.0 mg/kg/injection, schedule: Q01DX009 (ip), vehicle: water) was 121 % of control.

In the case of `CSC(=O)OCC1=CC2OC(=O)C3=COC(OC4OC(CO)C(O)C(O)C4O)C1C32` (centres undefined), the T/C (dose: 2.0 mg/kg/injection, schedule: Q01DX009 (ip), vehicle: saline with Tween-80) is reported as 101 % of control, the T/C (dose: 4.0 mg/kg/injection, schedule: Q01DX009 (ip), vehicle: saline with Tween-80) is reported as 101 % of control and the T/C (dose: 16.0 mg/kg/injection, schedule: Q01DX009 (ip), vehicle: saline with Tween-80) is reported as 111 % of control.

`CCOC(=O)Cn1nc(-c2ccc([N+](=O)[O-])o2)oc1=O` was tested, and the T/C [7] was 97 % of control, the T/C [9] was 95 % of control and the T/C [10] was 103 % of control.

With `COc1ccc2cc1Oc1ccc(cc1)C[C@H]1c3cc(c(OC)cc3CCN1C)Oc1c(OC)c(OC)cc3c1[C@H](C2)N(C)CC3` the T/C [3] was 105 % of control, the T/C (dose: 25.0 mg/kg/injection, schedule: Q04DX003 (ip), vehicle: saline) was 90 % of control and the T/C (dose: 50.0 mg/kg/injection, schedule: Q04DX003 (ip), vehicle: saline) was 110 % of control. The T/C [11] was 110 % of control.

`O=c1[n-]cc(F)c(=O)[nH]1.O=c1[n-]cc(F)c(=O)[nH]1.[NH2-].[NH2-].[Pt+4]` was tested, and the T/C [12] was 100 % of control, the T/C [11] was 120 % of control and 104 % of control and the T/C [13] was 120 % of control. For the same compound, the T/C (dose: 200.0 mg/kg/injection, schedule: Q04DX003 (ip), vehicle: saline) was 113 % of control and the T/C (dose: 400.0 mg/kg/injection, schedule: Q04DX003 (ip), vehicle: saline) was 100 % of control.

With `Cc1ccccc1Nc1n[nH]c(=S)s1` the T/C [7] was 95 % of control, the T/C [9] was 95 % of control and the T/C [10] was 104 % of control.

For `Cc1cc(C)c(C#N)c([S][Sn]([Cl])([Cl])[S]c2nc(C)cc(C)c2C#N)n1`, the T/C [4] was 97 % of control and the T/C [5] was 98 % of control.

With `O=C(CC(=O)NN=C1CCCCCC1)NN=C1CCCCCC1` the T/C (dose: 37.5 mg/kg/injection, schedule: Q01DX009 (ip), vehicle: saline with Tween-80) was 98 % of control, the T/C (dose: 75.0 mg/kg/injection, schedule: Q01DX009 (ip), vehicle: saline with Tween-80) was 105 % of control and the T/C (dose: 150.0 mg/kg/injection, schedule: Q01DX009 (ip), vehicle: saline with Tween-80) was 99 % of control.

In the case of `O=C(Nc1nnc(C(F)(F)F)s1)c1c(F)cccc1F`, the T/C [7] is reported as 92 % of control.

`CCCCCCC(=O)/C=C/c1cccc(OC)c1` was tested, and the T/C [7] was 90 % of control, the T/C [9] was 105 % of control and the T/C [10] was 105 % of control.

In the case of `NC1=C(Cl)C(=O)C(Cl)=C(Cl)C1=O`, the T/C (dose: 0.39 mg/kg/injection, schedule: Q01DX009 (ip), vehicle: saline) is reported as 102 % of control, the T/C (dose: 0.78 mg/kg/injection, schedule: Q01DX009 (ip), vehicle: saline) is reported as 98 % of control and the T/C (dose: 1.56 mg/kg/injection, schedule: Q01DX009 (ip), vehicle: saline) is reported as 99 % of control.

With `O=[N+]([O-])c1ccc(N=NNc2ccc(N=Nc3ccccc3)cc2)cc1` the T/C [1] was 109 % of control, the T/C [2] was 118 % of control and the T/C (dose: 50.0 mg/kg/injection, schedule: Q01DX009 (ip), vehicle: Klucel (hydroxypropylcellulose) (HPC)) was 95 % of control. The T/C (dose: 75.0 mg/kg/injection, schedule: Q01DX009 (ip), vehicle: Klucel (hydroxypropylcellulose) (HPC)) was 100 % of control, the T/C (dose: 115.0 mg/kg/injection, schedule: Q01DX009 (ip), vehicle: Klucel (hydroxypropylcellulose) (HPC)) was 95 % of control and the T/C (dose: 170.0 mg/kg/injection, schedule: Q01DX009 (ip), vehicle: Klucel (hydroxypropylcellulose) (HPC)) was 90 % of control.

In the case of `CC(O)C(F)(F)C(F)(F)C(F)(F)C(C)O` (centres undefined), the T/C (dose: 50.0 mg/kg/injection, schedule: Q01DX009 (ip), vehicle: saline) is reported as 90 % of control, the T/C [12] is reported as 104 % of control and the T/C [14] is reported as 116 % of control. For the same compound, the T/C [13] was 104 % of control, the T/C [15] was 94 % of control and the T/C (dose: 400.0 mg/kg/injection, schedule: Q04DX003 (ip), vehicle: saline sonified) was 116 % of control.

For `COc1ccc(CCNC(=O)Cc2ccccc2)cc1OC`, the T/C [9] was 95 % of control, the T/C [4] was 109 % of control and the T/C [10] was 90 % of control. For the same compound, the T/C [5] was 100 % of control, the T/C (dose: 400.0 mg/kg/injection, schedule: Q01DX009 (ip), vehicle: saline with Tween-80) was 100 % of control and the T/C [6] was 100 % of control.

`C/C(CCCCl)=N/NC(N)=S` was tested, and the T/C (dose: 75.0 mg/kg/injection, schedule: Q01DX009 (ip), vehicle: saline) was 86 % of control and the T/C (dose: 115.0 mg/kg/injection, schedule: Q01DX009 (ip), vehicle: saline) was 86 % of control.

`Cc1nc2nc(N)nc(N)c2nc1C` was tested, and the T/C [7] was 100 % of control, the T/C [9] was 104 % of control and the T/C [4] was 95 % of control. The T/C [10] was 100 % of control and the T/C [5] was 95 % of control.

With `CNC(CCc1ccccc1)C(=O)O` (centres undefined) the T/C (dose: 50.0 mg/kg/injection, schedule: Q04DX003 (ip), vehicle: saline sonified) was 95 % of control, the T/C [14] was 91 % of control and the T/C [15] was 91 % of control.

`CCCCCCCCCCCCCCCCCCNC(=O)Nc1ccc(CC)cc1` was tested, and the T/C [4] was 90 % of control, the T/C [5] was 104 % of control and the T/C [6] was 95 % of control.

With `O=c1[nH]cnc2c1ncn2C1OC(CO)C(O)C1O` (centres undefined) the T/C [12] was 99 % of control, the T/C [13] was 100 % of control and the T/C (dose: 400.0 mg/kg/injection, schedule: Q01DX009 (ip), vehicle: saline) was 103 % of control.

In the case of `CCC/C(=N\Nc1ccc([N+](=O)[O-])cc1[N+](=O)[O-])c1ccccc1`, the T/C (dose: 25.0 mg/kg/injection, schedule: Q04DX003 (ip), vehicle: saline with Tween-80) is reported as 90 % of control, the T/C [8] is reported as 100 % of control and the T/C [4] is reported as 109 % of control.

For `O=c1cc(-c2ccccc2)[nH]c(=S)[nH]1`, the T/C [4] was 95 % of control, the T/C [5] was 104 % of control and the T/C [6] was 100 % of control.

`CCOCCOC(=O)Nc1ccc(C)c(NC(=O)OCCOCC)c1` was tested, and the T/C [7] was 93 % of control, the T/C [9] was 90 % of control and the T/C [10] was 100 % of control.

`OCC1OC(Nc2ccccc2/C=N\O)C(O)C1O` (centres undefined) was tested, and the T/C [9] was 111 % of control and the T/C [10] was 94 % of control.

Source: PubChem BioAssay AID328 (DTP/NCI, 2004)
